What was measured:
SW 1116 = test: Antiproliferative activity against human SW1116 cells after 48 hrs by MTT assay; conditions: SW 1116, 48 h
HepG2 = test: cells; conditions: Homo sapiens, HepG2, 48 h
HeLa = test: cells; conditions: Homo sapiens, 48 h
BGC-823 = test: cells; conditions: Homo sapiens, BGC-823, 48 h
Description: Antiproliferative activity against human BGC823 cells after 48 hrs by MTT assay

Q: With S=c1oc(-c2ccc3c(c2)OCCO3)nn1CN1CCN(c2cccc(Cl)c2)CC1 as the compound, how does the IC50 (SW 1116) read?
A: > 50 µM

Q: What about the IC50 (HepG2) of the same compound?
A: > 50 µM

Q: What about the IC50 (HeLa) of the same compound?
A: 47.2 µM

Q: And the IC50 (BGC-823)?
A: > 50 µM

Q: For Cc1ccc(N2CCN(Cn3nc(-c4ccc5c(c4)OCCO5)oc3=S)CC2)c(C)c1, which IC50 (SW 1116) is on record?
A: > 50 µM

Q: What about the IC50 (HepG2) of the same compound?
A: 28.4 µM

Q: What about the IC50 (HeLa) of the same compound?
A: > 50 µM

Q: What about the IC50 (BGC-823) of the same compound?
A: 28.3 µM

Q: How did the IC50 (SW 1116) turn out when FC(F)(F)c1cccc(N2CCN(Cn3nc(-c4ccc5c(c4)OCCO5)oc3=S)CC2)c1 was run?
A: 47.1 µM

Q: And the IC50 (HepG2)?
A: 5.78 µM

Q: And the IC50 (HeLa)?
A: > 50 µM

Q: And the IC50 (BGC-823)?
A: > 50 µM

Q: Which IC50 (SW 1116) does the source give for S=c1oc(-c2ccc3c(c2)OCCO3)nn1CN1CCN(C(c2ccccc2)c2ccccc2)CC1 here?
A: 21.6 µM

Q: And the IC50 (HepG2)?
A: 9.12 µM

Q: What about the IC50 (HeLa) of the same compound?
A: > 50 µM

Q: And the IC50 (BGC-823)?
A: > 50 µM

Q: S=c1oc(-c2ccc3c(c2)OCCO3)nn1CN1CCN(c2ccccn2)CC1 was tested. Which IC50 (SW 1116) did it give?
A: 9.49 µM

Q: What about the IC50 (HepG2) of the same compound?
A: 11.3 µM

Q: And the IC50 (HeLa)?
A: 25.1 µM

Q: And the IC50 (BGC-823)?
A: 25.9 µM

Q: Which IC50 (SW 1116) does the source give for S=c1oc(-c2ccc3c(c2)OCCO3)nn1CN1CCN(c2ccc(Cl)cc2)CC1 here?
A: > 50 µM

Q: What about the IC50 (HepG2) of the same compound?
A: > 50 µM

Q: And the IC50 (HeLa)?
A: > 50 µM

Q: What about the IC50 (BGC-823) of the same compound?
A: > 50 µM

Q: COc1cccc(N2CCN(Cn3nc(-c4ccc5c(c4)OCCO5)oc3=S)CC2)c1 was tested. Which IC50 (SW 1116) did it give?
A: > 50 µM

Q: What about the IC50 (HepG2) of the same compound?
A: 21.4 µM

Q: And the IC50 (HeLa)?
A: 18 µM

Q: What about the IC50 (BGC-823) of the same compound?
A: > 50 µM

Q: Which results are given for Fc1ccccc1N1CCN(Cn2nc(-c3ccc4c(c3)OCCO4)oc2=S)CC1?
A: IC50 (SW 1116): 37.8 µM; IC50 (HepG2): > 50 µM; IC50 (HeLa): 37.3 µM; IC50 (BGC-823): > 50 µM

Q: What does the source list for S=c1oc(-c2ccc3c(c2)OCCO3)nn1CN1CCN(Cc2ccccc2)CC1?
A: IC50 (SW 1116): > 50 µM; IC50 (HepG2): 18 µM; IC50 (HeLa): 27.1 µM; IC50 (BGC-823): 28.7 µM

Q: With S=c1oc(-c2ccc3c(c2)OCCO3)nn1CN1CCN(c2ccccc2)CC1 as the compound, how does the IC50 (SW 1116) read?
A: > 50 µM

Q: What about the IC50 (HepG2) of the same compound?
A: > 50 µM

Q: What about the IC50 (HeLa) of the same compound?
A: > 50 µM

Q: What about the IC50 (BGC-823) of the same compound?
A: > 50 µM

Q: Which IC50 (SW 1116) does the source give for S=c1oc(-c2ccc3c(c2)OCCO3)nn1CN1CCN(c2cccc(Cl)c2Cl)CC1 here?
A: 37.1 µM

Q: What about the IC50 (HepG2) of the same compound?
A: > 50 µM

Q: And the IC50 (HeLa)?
A: > 50 µM

Q: What about the IC50 (BGC-823) of the same compound?
A: 22.6 µM

Q: For COc1ccc(N2CCN(Cn3nc(-c4ccc5c(c4)OCCO5)oc3=S)CC2)cc1, which IC50 (SW 1116) is on record?
A: 24.2 µM

Q: And the IC50 (HepG2)?
A: > 50 µM

Q: And the IC50 (HeLa)?
A: > 50 µM

Q: And the IC50 (BGC-823)?
A: 18.9 µM

Q: Which results are given for O=[N+]([O-])c1ccc(N2CCN(Cn3nc(-c4ccc5c(c4)OCCO5)oc3=S)CC2)cc1?
A: IC50 (SW 1116): > 50 µM; IC50 (HepG2): 29.5 µM; IC50 (HeLa): 31.7 µM; IC50 (BGC-823): > 50 µM

Q: Which results are given for S=c1oc(-c2ccc3c(c2)OCCO3)nn1CN1CCN(c2ccc(Cl)c(Cl)c2)CC1?
A: IC50 (SW 1116): 33.4 µM; IC50 (HepG2): 23.8 µM; IC50 (HeLa): > 50 µM; IC50 (BGC-823): > 50 µM

Q: How did the IC50 (SW 1116) turn out when COc1ccccc1N1CCN(Cn2nc(-c3ccc4c(c3)OCCO4)oc2=S)CC1 was run?
A: 16.9 µM

Q: And the IC50 (HepG2)?
A: 15.5 µM

Q: What about the IC50 (HeLa) of the same compound?
A: > 50 µM

Q: What about the IC50 (BGC-823) of the same compound?
A: 19.5 µM

Q: Which IC50 (SW 1116) does the source give for S=c1oc(-c2ccc3c(c2)OCCO3)nn1CN1CCN(c2ccccc2Cl)CC1 here?
A: > 50 µM

Q: And the IC50 (HepG2)?
A: 11.4 µM

Q: What about the IC50 (HeLa) of the same compound?
A: 37.4 µM

Q: And the IC50 (BGC-823)?
A: > 50 µM

Q: Fc1ccc(N2CCN(Cn3nc(-c4ccc5c(c4)OCCO5)oc3=S)CC2)cc1 was tested. Which IC50 (SW 1116) did it give?
A: > 50 µM

Q: What about the IC50 (HepG2) of the same compound?
A: > 50 µM

Q: And the IC50 (HeLa)?
A: > 50 µM

Q: What about the IC50 (BGC-823) of the same compound?
A: > 50 µM

Q: What does the source list for O=c1[nH]cc(F)c(=O)[nH]1 [FLUOROURACIL]?
A: IC50 (SW 1116): 18.5 µM; IC50 (HepG2): 13.3 µM; IC50 (HeLa): 9.02 µM; IC50 (BGC-823): 17.4 µM
